Data on 13 compounds can be found in ChEMBL document CHEMBL6103540, “Recent Progress and Future Perspectives on Anti-Hyperuricemic Agents” (J Med Chem, 2024).

Each structure is given as a SMILES string.

The target of assay [1] is T1, Xanthine dehydrogenase/oxidase (Homo sapiens, UniProt P47989). The assay is described as follows: Inhibition of XOR (unknown origin).
Assay [2] has as its target T2, Solute carrier family 22 member 12 (Homo sapiens, UniProt Q96S37).
T2 sequence (Q96S37 whole entry): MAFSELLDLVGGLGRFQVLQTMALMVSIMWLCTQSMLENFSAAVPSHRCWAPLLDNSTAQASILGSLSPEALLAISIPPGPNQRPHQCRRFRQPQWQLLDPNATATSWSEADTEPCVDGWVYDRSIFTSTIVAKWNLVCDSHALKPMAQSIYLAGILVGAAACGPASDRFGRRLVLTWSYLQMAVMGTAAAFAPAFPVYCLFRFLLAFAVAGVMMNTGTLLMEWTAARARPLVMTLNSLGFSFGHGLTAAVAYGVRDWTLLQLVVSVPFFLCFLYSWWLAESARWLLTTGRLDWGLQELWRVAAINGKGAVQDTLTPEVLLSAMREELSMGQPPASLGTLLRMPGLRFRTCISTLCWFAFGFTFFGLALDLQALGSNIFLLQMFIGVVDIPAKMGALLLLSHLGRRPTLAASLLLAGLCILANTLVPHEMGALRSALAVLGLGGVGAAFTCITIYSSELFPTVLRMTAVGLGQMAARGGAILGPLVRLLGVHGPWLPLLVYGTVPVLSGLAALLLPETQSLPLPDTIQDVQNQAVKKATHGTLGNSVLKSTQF
As to the kind of experiment: Inhibition of human URAT1 expressed in HEK293T cells by assessed as 14C-uric acid uptake preincubated for 5 mins followed by 14C-uric acid addition and measured after 10 mins by liquid scintillation counting method. The assay is classed as cell-based.

The target of assay [3] is T1, Xanthine dehydrogenase/oxidase. The assay is described as follows: Inhibition of Xanthine oxidase (unknown origin).
Assay [4] deals with T2, Solute carrier family 22 member 12. As to the kind of experiment: Inhibition of URAT1 (unknown origin).
The target is the same in assay [5]. The assay is described as follows: Inhibition of human URAT1 stably expressed in HEK293 cells by measuring 14C-uric acid uptake pre-incubated for 15 mins followed by 14C-uric acid addition and measured for 30 mins by liquid scintillation counter analysis. The assay is classed as cell-based.
For assay [6] the target is unchanged. As to the kind of experiment: Inhibition of human URAT1 stably expressed in HEK293T cells. The assay is classed as cell-based.
The target is the same in assay [7]. As to the kind of experiment: Inhibition of URAT1 (unknown origin) expressed in human HK-2 cells at 10 uM relative to control. The assay is classed as cell-based. As to conditions: HK-2, human.
Assay [8] concerns the target T1, Xanthine dehydrogenase/oxidase. As to the kind of experiment: Inhibition of xanthine oxidase (unknown origin) by absorbance based assay.
The target of assay [9] is T3, Solute carrier family 2, facilitated glucose transporter member 9 (Homo sapiens, UniProt Q9NRM0).
T3 sequence (Q9NRM0 whole entry): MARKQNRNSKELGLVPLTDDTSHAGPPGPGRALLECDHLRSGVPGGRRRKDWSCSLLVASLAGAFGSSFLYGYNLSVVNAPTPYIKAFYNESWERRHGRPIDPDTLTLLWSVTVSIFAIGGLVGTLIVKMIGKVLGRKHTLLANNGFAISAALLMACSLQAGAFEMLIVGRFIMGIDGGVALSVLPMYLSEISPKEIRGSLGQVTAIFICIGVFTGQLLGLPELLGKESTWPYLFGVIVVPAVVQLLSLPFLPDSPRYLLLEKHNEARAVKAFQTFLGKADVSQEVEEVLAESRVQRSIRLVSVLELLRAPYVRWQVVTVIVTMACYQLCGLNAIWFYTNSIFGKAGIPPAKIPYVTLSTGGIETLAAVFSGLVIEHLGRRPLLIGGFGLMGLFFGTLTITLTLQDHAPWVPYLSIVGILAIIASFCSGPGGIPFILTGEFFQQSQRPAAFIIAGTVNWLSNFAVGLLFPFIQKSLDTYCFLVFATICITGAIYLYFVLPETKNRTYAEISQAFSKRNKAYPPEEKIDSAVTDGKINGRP
The assay is described as follows: Inhibition of GLUT9 (unknown origin).

T1 sequence (P47989 whole entry): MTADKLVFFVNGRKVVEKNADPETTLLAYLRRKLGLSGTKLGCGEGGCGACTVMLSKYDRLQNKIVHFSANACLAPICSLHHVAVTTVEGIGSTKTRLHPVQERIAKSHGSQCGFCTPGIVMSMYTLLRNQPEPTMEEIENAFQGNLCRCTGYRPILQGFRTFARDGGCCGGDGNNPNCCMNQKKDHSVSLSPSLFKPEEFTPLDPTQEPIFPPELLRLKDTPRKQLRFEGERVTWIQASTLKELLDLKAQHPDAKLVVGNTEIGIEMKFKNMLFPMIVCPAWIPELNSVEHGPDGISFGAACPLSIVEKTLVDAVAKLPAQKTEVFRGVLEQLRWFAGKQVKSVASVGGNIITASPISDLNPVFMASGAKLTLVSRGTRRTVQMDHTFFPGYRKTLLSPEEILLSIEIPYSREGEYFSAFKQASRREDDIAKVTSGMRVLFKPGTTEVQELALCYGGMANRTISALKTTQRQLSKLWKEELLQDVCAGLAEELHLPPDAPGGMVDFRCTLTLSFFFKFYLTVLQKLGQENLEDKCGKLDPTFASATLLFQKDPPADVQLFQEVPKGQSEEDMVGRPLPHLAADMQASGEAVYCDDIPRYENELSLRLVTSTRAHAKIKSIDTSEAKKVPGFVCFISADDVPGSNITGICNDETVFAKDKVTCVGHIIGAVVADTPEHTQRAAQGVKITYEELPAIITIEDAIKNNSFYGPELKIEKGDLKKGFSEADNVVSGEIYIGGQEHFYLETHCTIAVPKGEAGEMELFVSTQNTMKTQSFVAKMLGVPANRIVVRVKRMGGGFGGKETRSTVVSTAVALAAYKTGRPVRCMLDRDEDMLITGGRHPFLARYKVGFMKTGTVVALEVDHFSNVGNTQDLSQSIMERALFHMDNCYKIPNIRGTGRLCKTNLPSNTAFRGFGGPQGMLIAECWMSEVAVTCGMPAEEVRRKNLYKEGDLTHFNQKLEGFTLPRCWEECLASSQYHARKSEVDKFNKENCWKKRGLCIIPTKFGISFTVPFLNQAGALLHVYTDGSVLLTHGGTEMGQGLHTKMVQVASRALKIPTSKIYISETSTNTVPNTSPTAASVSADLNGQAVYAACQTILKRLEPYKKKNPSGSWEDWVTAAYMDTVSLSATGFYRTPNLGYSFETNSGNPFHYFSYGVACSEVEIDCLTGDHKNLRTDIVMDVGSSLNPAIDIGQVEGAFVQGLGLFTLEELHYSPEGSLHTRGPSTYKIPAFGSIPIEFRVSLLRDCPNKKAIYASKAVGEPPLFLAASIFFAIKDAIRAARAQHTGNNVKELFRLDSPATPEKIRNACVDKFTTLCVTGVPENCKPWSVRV

Usually IC50 stands for the concentration that inhibits the measured activity by half. `O=C(/C=C/c1ccc(O)c2oc(-c3ccc(O)c(O)c3)cc12)O[C@H](Cc1ccc(O)c(O)c1)C(=O)O` returned an IC50 in [1] of 9700 nM.
Turning to `O=C(O)C1(Sc2ccccc2N2CCOc3ccc(Br)cc32)CCC1`, the IC50 in assay [2] was 1690 nM.
On to `O/N=C(\Cc1ccc(Br)cc1)c1ccc(O)cc1O`, for which the values for the IC50 in [3] and in assay [4] were 3330 nM and 145 nM, respectively.
`CCCc1ccc(Cn2c(Br)nnc2SCC(=O)O)c2ccccc12` displayed an IC50 in assay [5] of 92 nM.
For `CCn1c(=O)sc2cc(-c3ccc(C(=O)O)c(O)c3)ccc21`, the figures for the IC50 in assay [3] and in assay [4] were 12 nM and 30200 nM, respectively.
`N#Cc1cc(-n2cnc(C(=O)O)c2)ccc1N1CCCCCC1` displayed an IC50 in assay [6] of 10800 nM.
In [3], `O=c1c2cc(O)c(O)cc2oc2cc(OCc3ccccc3)cc(O)c12` came in with an IC50 of 3300 nM.
Usually inhibition stands for the percentage by which the read-out fell short of the control. As to `COc1cc2c3c(c1OS(=O)(=O)c1ccc(F)cc1)-c1ccccc1C[C@H]3N(C)CC2`, the inhibition at 10 µM in assay [7] turned out to be 61%.
On to `COc1ccc(C2CC(=O)c3c(O)cc(O)cc3O2)cc1O` (configuration not stated), for which the IC50 in assay [8] amounted to 840 nM.
In turn, `Cc1nc(-c2ccc(OCC(C)C)c(C#N)c2)sc1C(=O)O` [FEBUXOSTAT] showed an IC50 in [3] of 10 nM.
In the case of `CC(C)=CCc1c(O)ccc2c1O[C@H](c1ccc(O)cc1)CC2=O` [ISOBAVACHIN], the results for the IC50 in assay [9], in assay [3] and in assay [4] were 1120 nM, 14400 nM and 240 nM, respectively.
For `O=C(O)C1(Sc2ccnc3ccc(Br)cc23)CCC1` [SHR-4640], in [4], the IC50 was determined as 53 nM.
Turning to `N#Cc1cc(-c2n[nH]c(-c3ccncc3)n2)ccn1` [TOPIROXOSTAT], in assay [1], the IC50 is 15 nM.
